pEC50, pIC50: −log10 of the molar value. Values joined by “and” are separate entries in the source; they are usually repeats but may differ in a detail not shown here. Equal values may be shown once. Where a name gives a salt, the structure may show the parent alone. Read-outs that look alike come from different tables or passages of the source.
Columns and labels:
[1] = molecular target: T1, SFRP-1 (Homo sapiens, UniProt Q8N474); test: Fluorescence polarization binding assay (competitive displacement of a probe compound from SFRP-1); details: fluorescence anisotropy, 45 nM SFRP-1, 20 nM probe;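 also: test compound competes with a fluorescent probe held by SFRP-1, seen as a drop in probe anisotropy after incubation in darkness, with anisotropy as function of rising compound dose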
T1 sequence (Q8N474 32-314): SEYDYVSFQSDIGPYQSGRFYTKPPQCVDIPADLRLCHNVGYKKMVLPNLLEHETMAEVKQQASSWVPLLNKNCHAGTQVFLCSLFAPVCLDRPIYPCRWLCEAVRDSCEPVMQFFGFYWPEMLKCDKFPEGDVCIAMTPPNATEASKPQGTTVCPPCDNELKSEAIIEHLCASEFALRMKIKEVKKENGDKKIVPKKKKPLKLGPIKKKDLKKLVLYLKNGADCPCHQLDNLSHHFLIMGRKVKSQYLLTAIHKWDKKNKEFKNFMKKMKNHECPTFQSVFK

[2] = molecular target: T1, SFRP-1; test: Cell-based assay for in vitro measurement of SFRP-1/SARP2 antagonist activity (U2OS cells co-transfected with 16x TCF-tk-Luciferase reporter, Wnt and hSFRP-1); details: for fold induction at 10 µM / fold induction at 15 µM: U2OS; for fold induction at 10 µM: read-out: Fold Induction with SFRP-1, U2OS cells, single dose 10 μM, luciferase reporter, fold induction over SFRP-1 control;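 as to all read-outs here: U2OS cells co-transfected with a TCF-tk luciferase reporter, a Wnt vector, hSFRP-1 or empty vector and CMV-βgal, luciferase luminescence read in cell lysates alongside βgal activity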
[3] = read-out: Fold Induction with SFRP-1, Conc 15 μM, single dose, luciferase reporter, fold induction over SFRP-1 control, cells with SFRP-1
[4] = read-out: Fold Induction without SFRP-1, Conc 15 μM, single dose, luciferase reporter, cells without SFRP-1 (specificity control)

SMILES | pIC50 [1] | pEC50 [2] | fold induction at 10 µM [2] | other results
CC(C)c1ccc(S(=O)(=O)c2ccc(F)cc2)cc1S(=O)(=O)NC1CCN(C(=S)NCCN2CCOCC2)CC1 [Example 698, 4-[({5-[(4-fluorophenyl)sulfonyl]-2-isopropylphenyl}sulfonyl)amino]-N-(2-morpholin-4-ylethyl)piperidine-1-carbothioamide] | 6.15 | 6.22 | 3 | –
COc1cccc(S(=O)(=O)c2ccc(C(F)(F)F)c(S(=O)(=O)NCCc3cccnc3)c2)c1 [Example 747, 5-[(3-methoxyphenyl)sulfonyl]-N-(2-pyridin-3-ylethyl)-2-(trifluoromethyl)benzenesulfonamide] | 7.05 | 6.11 | 5.7 | –
CC(C)c1ccc(S(=O)(=O)c2ccc(F)cc2)cc1S(=O)(=O)NC1CCCC1 [Example 523, N-cyclopentyl-5-[(4-fluorophenyl)sulfonyl]-2-isopropylbenzenesulfonamide] | 5.52 | – | – | fold induction at 15 µM [2, 3]: 2.1; fold induction at 15 µM [2, 4]: 1
CC(C)(C)OC(=O)N1C[S+]([O-])C[C@H]1C(=O)N1CCC(NS(=O)(=O)c2cc(S(=O)(=O)c3ccccc3)ccc2C(F)(F)F)CC1 (stereo partly drawn) [Example 1061, tert-butyl (4R)-4-{[4-({[5-(phenylsulfonyl)-2-(trifluoromethyl)phenyl]sulfonyl}amino)piperidin-1-yl]carbonyl}-1,3-thiazolidine-3-carboxylate 1-oxide] | 7.70 | 7.11 | – | –
CC(=O)Nc1ccc(C(=O)N2CCC(NS(=O)(=O)c3cc(S(=O)(=O)c4ccccc4)ccc3C(F)(F)F)CC2)cc1 [Example 719, N-(4-{[4-({[5-(phenylsulfonyl)-2-(trifluoromethyl)phenyl]sulfonyl}amino)piperidin-1-yl]carbonyl}phenyl)acetamide] | 6.70 | 6.36 | 2.1 | –
CCC(O)CNS(=O)(=O)c1cc(S(=O)(=O)c2ccc(F)cc2)ccc1C(C)C (stereo not shown) [Example 738, 5-[(4-fluorophenyl)sulfonyl]-N-(2-hydroxybutyl)-2-isopropylbenzenesulfonamide] | 5.15 | – | 2.9 | –
Cc1cccc(Cl)c1S(=O)(=O)c1ccc(C(C)C)c(S(=O)(=O)NCCc2ccccn2)c1 [Example 578, 5-[(2-chloro-6-methylphenyl)sulfonyl]-2-isopropyl-N-(2-pyridin-2-ylethyl)benzenesulfonamide] | 6.22 | – | – | fold induction at 15 µM [2, 3]: 2.8; fold induction at 15 µM [2, 4]: 1.2
CC(C)(C)OC(=O)N1CCC(NS(=O)(=O)c2cc(S(=O)(=O)c3ccc(F)cc3)ccc2C(F)(F)F)CC1 [Example 818, tert-butyl 4-({[5-[(4-fluorophenyl)sulfonyl]-2-(trifluoromethyl)phenyl]sulfonyl}amino)piperidine-1-carboxylate] | 6.52 | 5.88 | 2.6 | –
CNc1ccc(S(=O)(=O)c2ccc(C(C)C)c(S(=O)(=O)NCCc3ccccn3)c2)cc1Cl [Example 605, 5-{[3-chloro-4-(methylamino)phenyl]sulfonyl}-2-isopropyl-N-(2-pyridin-2-ylethyl)benzenesulfonamide] | 6.22 | – | – | fold induction at 15 µM [2, 3]: 3.2; fold induction at 15 µM [2, 4]: 1.1
CNCCNS(=O)(=O)c1cc(S(=O)(=O)c2ccccc2)ccc1C(F)(F)F [Example 799, N-[2-(Methylamino)ethyl]-5-(phenylsulfonyl)-2-(trifluoromethyl)benzenesulfonamide hydrochloride] | 5.10 | – | 2.2 | –
Cc1ccc(S(=O)(=O)c2ccccc2)cc1S(=O)(=O)NC1CCN(C(=O)c2cccs2)CC1 [Example 497, 2-methyl-5-(phenylsulfonyl)-N-[1-(2-thienylcarbonyl)piperidin-4-yl]benzenesulfonamide] | 5.89 and 5.77 | – | – | fold induction at 15 µM [2, 3]: 2.4; fold induction at 15 µM [2, 4]: 1
CCCc1ccc(S(=O)(=O)c2ccccc2)cc1S(=O)(=O)NCCc1ccccc1 [Example 550, N-(2-phenylethyl)-5-(phenylsulfonyl)-2-propylbenzenesulfonamide] | 5.89 | – | – | fold induction at 15 µM [2, 3]: 2.9; fold induction at 15 µM [2, 4]: 1.1
COc1ccc(S(=O)(=O)c2ccc(C(F)(F)F)c(S(=O)(=O)NC3CCNCC3)c2)cc1 [Example 999, 5-[(4-methoxyphenyl)sulfonyl]-N-piperidin-4-yl-2-(trifluoromethyl)benzenesulfonamide] | 6.10 | 6.10 | – | –
Cc1ccc(S(=O)(=O)c2ccc(N[C@@H](C)C3CCCCC3)cc2)cc1S(=O)(=O)NCCCn1ccnc1 [Example 371, 5-[(4-{[(1S)-1-cyclohexylethyl]amino}phenyl)sulfonyl]-N-[3-(1H-imidazol-1-yl)propyl]-2-methylbenzenesulfonamide] | 5.15 | – | – | fold induction at 15 µM ([2]; read-out: Fold Induction with SFRP-1, Conc 15 μM, with SFRP-1, fold induction over SFRP-1 control, single dose): 1.4; fold induction at 15 µM ([2]; read-out: Fold Induction without SFRP-1, Conc 15 μM, without SFRP-1, single dose): 0.8
NCCCNS(=O)(=O)c1cc(S(=O)(=O)c2ccccc2)ccc1C(F)(F)F [Example 993, N-(3-aminopropyl)-5-(phenylsulfonyl)-2-(trifluoromethyl)benzenesulfonamide] | 5.82 | 5.64 | – | –
CNc1ccc(S(=O)(=O)c2ccc(C(F)(F)F)c(S(=O)(=O)NC3CCNCC3)c2)cc1 [Example 842, 5-{[4-(methylamino)phenyl]sulfonyl}-N-piperidin-4-yl-2-(trifluoromethyl)benzenesulfonamide] | 6.72 | 6.17 | 4.2 | –
O=S(=O)(NC1CCN(Cc2ccc(C(F)(F)F)cc2)CC1)c1cc(S(=O)(=O)c2ccccc2)ccc1C(F)(F)F [Example 749, 5-(phenylsulfonyl)-2-(trifluoromethyl)-N-{1-[4-(trifluoromethyl)benzyl]piperidin-4-yl}benzenesulfonamide] | 5.52 | – | 1.7 | –
Cc1nccn1CCNS(=O)(=O)c1cc(S(=O)(=O)c2ccc(F)cc2)ccc1C(C)C [Example 583, 5-[(4-fluorophenyl)sulfonyl]-2-isopropyl-N-[2-(2-methyl-1H-imidazol-1-yl)ethyl]benzenesulfonamide] | 6.52 | – | – | fold induction at 15 µM [2, 3]: 3.9; fold induction at 15 µM [2, 4]: 1.1
CN(CCNS(=O)(=O)c1cc(S(=O)(=O)c2ccccc2)ccc1C(F)(F)F)C(=O)N1CCOCC1 [Example 835, N-methyl-N-[2-({[5-(phenylsulfonyl)-2-(trifluoromethyl)phenyl]sulfonyl}amino)ethyl]morpholine-4-carboxamide] | 6.00 | – | 3.3 | –
Cc1ccc(S(=O)(=O)c2ccc(F)cc2)cc1S(=O)(=O)NC1C[C@@H](C)O[C@@H](C)C1 (stereo partly drawn) [Example 841, N-[(2R*,4S*,6S*)-2,6-dimethyltetrahydro-2H-pyran-4-yl]-5-[(4-fluorophenyl)sulfonyl]-2-methylbenzenesulfonamide] | 4.74 | – | – | Fold Induction with SFRP-1 ([2]; U2OS cells, single dose 10 μM, luciferase reporter, fold induction over SFRP-1 control): 1.6
O=S(=O)(NC[C@@H](O)c1ccccc1)c1cc(S(=O)(=O)c2ccccc2)ccc1C(F)(F)F [Example 774, N-[(2S)-2-hydroxy-2-phenylethyl]-5-(phenylsulfonyl)-2-(trifluoromethyl)benzenesulfonamide] | 7.22 | 6.01 | 1.3 | –
O=C(O)C1CCCC(NS(=O)(=O)c2cc(S(=O)(=O)c3ccccc3)ccc2C(F)(F)F)C1 (stereo not shown) [Example 967, 3-({[5-(phenylsulfonyl)-2-(trifluoromethyl)phenyl]sulfonyl}amino)cyclohexanecarboxylic acid] | 5.60 | – | 2.1 | –
CC(CO)NS(=O)(=O)c1cc(S(=O)(=O)c2ccccc2)ccc1C(F)(F)F (stereo not shown) [Example 683, N-(2-hydroxy-1-methylethyl)-5-(phenylsulfonyl)-2-(trifluoromethyl)benzenesulfonamide] | 5.92 | 5.51 | 3.7 | –
COC(=O)c1ccc2c(c1)CC(NS(=O)(=O)c1cc(S(=O)(=O)c3ccccc3)ccc1C(F)(F)F)C2 (stereo not shown) [Example 1037, methyl 2-({[5-(phenylsulfonyl)-2-(trifluoromethyl)phenyl]sulfonyl}amino)indane-5-carboxylate] | 7.10 | 5.42 | – | –
CN(C)c1ccc(S(=O)(=O)c2ccc(C(F)(F)F)c(S(=O)(=O)NC3CCNCC3)c2)cc1 [Example 843, 5-{[4-(dimethylamino)phenyl]sulfonyl}-N-piperidin-4-yl-2-(trifluoromethyl)benzenesulfonamide] | 6.59 | 5.70 | 4.7 | –
CC(C)NC(=O)CN1CCC(NS(=O)(=O)c2cc(S(=O)(=O)c3ccccc3)ccc2C(F)(F)F)CC1 [Example 1086, N-isopropyl-2-[4-({[5-(phenylsulfonyl)-2-(trifluoromethyl)phenyl]sulfonyl}amino)piperidin-1-yl]acetamide] | 6.57 | 6.31 | – | –
O=S(=O)(NCCn1ccnc1)c1cc(S(=O)(=O)c2ccccc2F)ccc1C(F)(F)F [Example 845, 5-[(2-fluorophenyl)sulfonyl]-N-[2-(1H-imidazol-1-yl)ethyl]-2-(trifluoromethyl)benzenesulfonamide] | 6.30 | 6.09 | 3.8 | –

Reference: patent publication US20060276464A1, “Diarylsulfone sulfonamides and use thereof” (Wyeth, priority 2005, published 2006)
